These are literature values, as cited in patent publication US20250312332A1, “TREATMENT OF MUSCLE FIBROSIS” (University of Newcastle upon Tyne, priority 2022, published 2025).

Molecules are shown by their SMILES. Counter-ions that a name gives are not always drawn. Like-named read-outs stand apart in the source and are kept apart here.

One data set concerns neuronal cultures. To be noted: cited from earlier work.
The target of another data set is MLCK. As to conditions: cited from earlier work; for Ki: read-out: Ki for MLCK / MLC-kinase.
For the next data set, the target named is PKC. To be noted: cited from earlier work.
Data set [1] has as its target ROCK. As to conditions: read-out: Ki (ROCK / Rho kinase); cited from earlier work.
The next data set deals with ROCK2 (Homo sapiens, UniProt O75116). As to conditions: cited from earlier work.
ROCK2, sequence (O75116 whole entry): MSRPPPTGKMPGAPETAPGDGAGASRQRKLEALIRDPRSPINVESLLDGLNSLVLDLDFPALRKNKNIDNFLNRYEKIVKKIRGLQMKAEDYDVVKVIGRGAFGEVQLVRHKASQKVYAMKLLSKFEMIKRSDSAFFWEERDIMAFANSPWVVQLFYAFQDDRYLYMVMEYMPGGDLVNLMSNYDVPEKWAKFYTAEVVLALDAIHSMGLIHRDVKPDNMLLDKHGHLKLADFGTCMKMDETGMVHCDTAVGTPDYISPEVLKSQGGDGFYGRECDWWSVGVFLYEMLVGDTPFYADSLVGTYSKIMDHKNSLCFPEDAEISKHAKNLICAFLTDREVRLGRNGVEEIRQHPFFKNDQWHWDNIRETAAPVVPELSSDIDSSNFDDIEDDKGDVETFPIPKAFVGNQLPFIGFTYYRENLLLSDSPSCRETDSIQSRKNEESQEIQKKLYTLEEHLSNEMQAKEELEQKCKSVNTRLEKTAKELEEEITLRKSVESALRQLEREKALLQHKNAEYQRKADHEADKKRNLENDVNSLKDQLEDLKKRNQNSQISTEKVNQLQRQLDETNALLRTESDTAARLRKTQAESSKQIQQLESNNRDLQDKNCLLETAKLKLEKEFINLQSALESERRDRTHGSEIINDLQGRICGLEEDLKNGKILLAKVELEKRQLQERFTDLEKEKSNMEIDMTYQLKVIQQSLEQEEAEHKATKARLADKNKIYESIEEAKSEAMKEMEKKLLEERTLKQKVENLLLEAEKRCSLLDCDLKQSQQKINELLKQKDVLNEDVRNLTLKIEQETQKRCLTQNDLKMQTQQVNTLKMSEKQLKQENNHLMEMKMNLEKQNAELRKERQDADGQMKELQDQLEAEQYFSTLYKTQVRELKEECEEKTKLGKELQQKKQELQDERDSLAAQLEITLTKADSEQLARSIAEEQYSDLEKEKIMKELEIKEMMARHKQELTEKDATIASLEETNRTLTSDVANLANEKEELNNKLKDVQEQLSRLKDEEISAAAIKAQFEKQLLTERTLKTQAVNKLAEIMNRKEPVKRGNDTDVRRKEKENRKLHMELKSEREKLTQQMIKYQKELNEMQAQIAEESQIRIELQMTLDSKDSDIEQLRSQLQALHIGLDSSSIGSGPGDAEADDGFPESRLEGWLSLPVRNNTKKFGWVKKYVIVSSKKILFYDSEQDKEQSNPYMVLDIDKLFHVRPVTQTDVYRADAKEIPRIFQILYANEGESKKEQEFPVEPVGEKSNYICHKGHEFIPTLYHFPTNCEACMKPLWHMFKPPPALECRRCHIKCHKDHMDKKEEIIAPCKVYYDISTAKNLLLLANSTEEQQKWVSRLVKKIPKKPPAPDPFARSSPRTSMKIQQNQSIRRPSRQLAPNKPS
Another data set has as its system rat aorta. To be noted: cited from earlier work.
The next data set deals with PKA. As to conditions: cited from earlier work.
A further data set concerns the target Rac1 (Homo sapiens, UniProt P63000). To be noted: cited from earlier work.
In data set [2] the test system is other Rho GTPases (such as Cdc42 or RhoA). To be noted: cited from earlier work.
In data set [3] the target is cGMP-dependent protein kinase (PKG). As to conditions: cited from earlier work.
The test system of data set [4] is myosin II light chain (MLC) phosphorylation induced by MRCKβ. To be noted: in vitro; cited from earlier work.
The next data set deals with ROCK1 (Homo sapiens, UniProt Q13464). To be noted: cited from earlier work.
ROCK1, sequence (Q13464 whole entry): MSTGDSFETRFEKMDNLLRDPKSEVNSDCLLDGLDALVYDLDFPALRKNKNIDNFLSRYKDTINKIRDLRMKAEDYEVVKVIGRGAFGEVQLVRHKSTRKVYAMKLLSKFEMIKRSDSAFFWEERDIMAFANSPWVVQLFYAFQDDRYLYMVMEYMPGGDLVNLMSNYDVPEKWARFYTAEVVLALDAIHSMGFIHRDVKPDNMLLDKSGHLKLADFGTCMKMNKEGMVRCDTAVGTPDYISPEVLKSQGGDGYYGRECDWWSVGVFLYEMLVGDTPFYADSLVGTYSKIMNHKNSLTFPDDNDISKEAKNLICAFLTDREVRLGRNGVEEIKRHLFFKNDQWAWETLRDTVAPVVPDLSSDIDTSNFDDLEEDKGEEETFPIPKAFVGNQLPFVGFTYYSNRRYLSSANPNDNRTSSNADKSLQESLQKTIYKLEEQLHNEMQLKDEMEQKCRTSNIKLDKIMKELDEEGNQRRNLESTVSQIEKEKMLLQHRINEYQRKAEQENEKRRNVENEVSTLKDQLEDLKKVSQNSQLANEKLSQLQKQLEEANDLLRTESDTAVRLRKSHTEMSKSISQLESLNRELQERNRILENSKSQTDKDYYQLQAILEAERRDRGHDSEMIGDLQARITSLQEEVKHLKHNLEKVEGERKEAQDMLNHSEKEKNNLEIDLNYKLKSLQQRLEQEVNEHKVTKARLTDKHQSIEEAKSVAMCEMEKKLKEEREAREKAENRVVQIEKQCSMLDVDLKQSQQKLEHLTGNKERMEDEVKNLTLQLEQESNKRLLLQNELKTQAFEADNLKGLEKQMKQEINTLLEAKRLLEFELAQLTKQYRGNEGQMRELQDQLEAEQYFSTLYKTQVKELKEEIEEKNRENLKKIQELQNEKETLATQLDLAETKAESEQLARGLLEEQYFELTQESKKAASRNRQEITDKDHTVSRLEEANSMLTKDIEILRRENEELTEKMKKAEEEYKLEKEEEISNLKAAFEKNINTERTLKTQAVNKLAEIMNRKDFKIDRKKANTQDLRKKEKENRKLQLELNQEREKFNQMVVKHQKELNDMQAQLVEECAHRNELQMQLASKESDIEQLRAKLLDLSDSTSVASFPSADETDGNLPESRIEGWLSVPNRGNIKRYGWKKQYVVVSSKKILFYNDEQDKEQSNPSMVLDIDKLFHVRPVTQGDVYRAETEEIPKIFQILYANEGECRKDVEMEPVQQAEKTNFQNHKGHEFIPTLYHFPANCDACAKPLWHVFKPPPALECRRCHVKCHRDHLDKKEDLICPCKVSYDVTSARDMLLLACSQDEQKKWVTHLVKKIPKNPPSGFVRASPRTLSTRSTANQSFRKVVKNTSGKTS
Another data set addresses MRCKα (Homo sapiens, UniProt Q5VT25). As to conditions: cited from earlier work.
Data set [5] relates to B16 melanoma. To be noted: cited from earlier work.
The test system of data set [6] is B16 melanoma. As to conditions: cited from earlier work. This is another data set of the same source.
The next data set has as its system Rho signaling. To be noted: cited from earlier work.
For data set [7] the following is noted: insulin-resistant mice; cited from earlier work.
The subject of data set [8] is PC-3 prostate cancer cell. To be noted: in vitro; cited from earlier work.
The subject of data set [9] is Cdc42 or Rac1, nor the GEF, LARG. To be noted: cited from earlier work.
In another data set the test system is B16BL6 and 4T1 cells. As to conditions: murine animal models; cited from earlier work.
The conditions of data set [10]: 0.1%, 0.3%, and 0.5%, cited from earlier work.
For data set [11] the following is noted: spontaneously hypertensive rat; cited from earlier work.
A further data set deals with MDA-MB-231 cells. As to conditions: cited from earlier work.
A further data set concerns the target HMG-COA reductase (Homo sapiens, UniProt P04035). As to conditions: cited from earlier work.
The subject of the next data set is RAW 264.7. As to conditions: LPS plus INF-y; 18 hours; read-out: IC50 for accumulation of nitrite in RAW 264.7; cited from earlier work.
The next data set concerns iNOS gene expression. To be noted: 10-100 μM; 18 hours; cited from earlier work.
The subject of the next data set is RAVSMC. As to conditions: LPS plus INF-y; 18 hours; read-out: IC50 for accumulation of nitrite in RAVSMC; cited from earlier work.
The target of another data set is RhoA (Homo sapiens, UniProt P61586). To be noted: read-out: Kd for RhoA (RhoA subfamily Rho GTPases); cited from earlier work.
RhoA, sequence (P61586 whole entry): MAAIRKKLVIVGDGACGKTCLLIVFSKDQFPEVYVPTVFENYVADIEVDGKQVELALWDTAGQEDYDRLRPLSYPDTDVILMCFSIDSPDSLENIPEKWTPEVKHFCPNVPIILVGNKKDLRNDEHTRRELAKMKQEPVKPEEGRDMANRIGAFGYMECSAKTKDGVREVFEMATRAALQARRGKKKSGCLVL
A further data set has as its system PC-3 cell. As to conditions: read-out: IC50 for PC-3 cell migration; cited from earlier work.
In another data set the test system is MKL1 expression. To be noted: 25 μM; cited from earlier work.
For the next data set, the system named is MRCK. As to conditions: read-out: IC50 against MRCK; cited from earlier work.
The conditions of data set [12]: monkey eyes; cited from earlier work.
Data set [13] has as its system T47D and CAMA-1 breast cancer cells. As to conditions: T47D and CAMA-1 cells; cited from earlier work.
In a further data set the target is rat ROCK-2 (Rattus norvegicus, UniProt Q62868). To be noted: cited from earlier work.
Data set [14] deals with ROCK-mediated phosphorylation of MYPTT696. As to conditions: thoracic aorta of spontaneously hypertensive rats; cited from earlier work.
For another data set, the system named is NIH 3T3 cells. As to conditions: 10-30 μM, 24 hours; cited from earlier work.
Data set [15] addresses Leukemia-associated Rho guanine nucleotide exchange factor (LARG) (Homo sapiens, UniProt Q9NZN5). As to conditions: cited from earlier work.
The conditions of data set [16]: in vitro; cited from earlier work.
Data set [17] addresses ROCK. To be noted: read-out: Kds, binding to ROCK; cited from earlier work.
In a further data set the target is Cdc42 (Homo sapiens, UniProt P60953). To be noted: cited from earlier work.
Cdc42, sequence (P60953 whole entry): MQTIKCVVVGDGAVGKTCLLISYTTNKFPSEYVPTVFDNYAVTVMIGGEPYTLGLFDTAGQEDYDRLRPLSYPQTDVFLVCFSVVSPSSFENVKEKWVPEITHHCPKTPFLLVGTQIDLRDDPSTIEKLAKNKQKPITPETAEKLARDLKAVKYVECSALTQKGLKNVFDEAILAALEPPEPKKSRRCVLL
Data set [18] concerns Rab2, Rab7, H-Ras, Rac1, Rac 2 and RhoA wild-type. As to conditions: cited from earlier work.
The next data set has as its system granulocytes. As to conditions: 50 μM; for 15 min; cited from earlier work.
The test system of a further data set is PASMC. As to conditions: cited from earlier work.
The conditions of data set [19]: after transient middle cerebral artery occlusion; cited from earlier work.

Leukemia-associated Rho guanine nucleotide exchange factor (LARG), sequence (Q9NZN5 whole entry, species assumed): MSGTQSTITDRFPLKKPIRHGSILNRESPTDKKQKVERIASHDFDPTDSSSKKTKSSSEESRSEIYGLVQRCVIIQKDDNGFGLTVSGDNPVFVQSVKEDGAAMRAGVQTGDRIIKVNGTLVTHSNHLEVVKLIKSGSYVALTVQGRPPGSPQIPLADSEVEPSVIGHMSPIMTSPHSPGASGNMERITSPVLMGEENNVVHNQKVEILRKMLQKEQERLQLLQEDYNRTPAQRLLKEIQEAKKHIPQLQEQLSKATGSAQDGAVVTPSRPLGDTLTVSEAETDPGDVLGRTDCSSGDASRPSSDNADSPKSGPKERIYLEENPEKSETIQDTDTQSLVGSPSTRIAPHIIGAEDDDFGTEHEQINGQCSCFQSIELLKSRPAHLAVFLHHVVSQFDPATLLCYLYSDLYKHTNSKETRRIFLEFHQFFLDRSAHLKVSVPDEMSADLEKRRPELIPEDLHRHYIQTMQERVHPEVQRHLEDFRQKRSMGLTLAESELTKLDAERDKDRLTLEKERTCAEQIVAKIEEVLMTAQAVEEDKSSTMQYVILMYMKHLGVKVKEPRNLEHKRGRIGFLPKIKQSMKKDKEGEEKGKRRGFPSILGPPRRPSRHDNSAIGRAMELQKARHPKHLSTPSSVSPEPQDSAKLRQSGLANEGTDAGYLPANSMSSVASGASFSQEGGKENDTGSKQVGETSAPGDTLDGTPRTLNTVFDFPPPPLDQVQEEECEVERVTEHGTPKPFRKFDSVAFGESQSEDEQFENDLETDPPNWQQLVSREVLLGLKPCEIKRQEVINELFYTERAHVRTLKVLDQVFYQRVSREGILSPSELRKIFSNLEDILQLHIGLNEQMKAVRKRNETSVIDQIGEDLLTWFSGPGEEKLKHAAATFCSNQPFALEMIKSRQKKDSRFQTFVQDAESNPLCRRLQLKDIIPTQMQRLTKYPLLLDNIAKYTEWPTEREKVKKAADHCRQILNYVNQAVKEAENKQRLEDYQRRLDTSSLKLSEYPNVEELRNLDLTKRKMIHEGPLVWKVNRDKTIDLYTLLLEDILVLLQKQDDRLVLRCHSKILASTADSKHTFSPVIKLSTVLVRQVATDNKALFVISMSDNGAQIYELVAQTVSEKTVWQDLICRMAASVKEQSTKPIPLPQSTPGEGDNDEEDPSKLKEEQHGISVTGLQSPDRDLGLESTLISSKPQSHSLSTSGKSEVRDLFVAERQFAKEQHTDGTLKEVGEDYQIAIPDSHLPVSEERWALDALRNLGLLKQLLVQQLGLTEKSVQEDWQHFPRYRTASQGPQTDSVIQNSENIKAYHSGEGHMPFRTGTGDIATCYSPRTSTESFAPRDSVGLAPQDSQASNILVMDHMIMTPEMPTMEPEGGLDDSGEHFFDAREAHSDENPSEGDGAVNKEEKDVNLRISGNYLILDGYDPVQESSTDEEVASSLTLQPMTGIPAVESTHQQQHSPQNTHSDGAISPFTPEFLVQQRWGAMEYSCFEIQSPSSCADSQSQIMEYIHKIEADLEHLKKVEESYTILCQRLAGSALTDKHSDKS

`Cc1cncc2cccc(S(=O)(=O)N3CCCNC[C@@H]3C)c12` [Compound H-1152]: the neurite length entry in the data set on neuronal cultures (10 μM, BMP4 and LIF cultures) was “increases neurite length”. In the data set with neuronal cultures (0.5-10 μM), the neuronal survival result is listed as “no decreased neuronal survival”. The Ki at MLCK is 10100 nM; on PKC, 9270 nM; at ROCK [1], 1.6 nM.

Take `c1cc(-c2ncco2)cc(-c2nnc(Nc3ccc4[nH]ncc4c3)s2)c1` [ROCK2-IN-2]: on ROCK2, the IC50 is less than 1000 nM.

As to `O=C(O)/C=C/c1cccc(Nc2cnc3ccccc3n2)c1` [HL07], in the data set with rat aorta, the “phenylephrine (PE)-induced contraction” value is given as “inhibited”.

As to `Cc1c[nH]c2ncnc(N3CCC(CN)(C(=O)Nc4cccc(OC(=O)N(C)C)c4)CC3)c12` [LX7101], the IC50 with PKA (read-out: IC50 for PKA) is less than 1 nM.

As for `Cc1ccc(NC(=O)c2cccc(OCc3c(C)noc3C)c2)cc1S(N)(=O)=O` [Compound Z62954982], on Rac1, the IC50 was 12000 nM and the “times more effective than NSC23766” value is reported as 4 times. The “activity of other Rho GTPases” value in data set [2] is listed as “without affecting the activity”.

As to `O=S(=O)(c1cccc2cnccc12)N1CCNCC1` [HA-100], the IC50 in [3] was 4000 nM; with MLCK (read-out: IC50 for MLC-kinase) it was 240000 nM; with PKA (read-out: IC50 for cAMP-dependent protein kinase (PKA)) it was 8000 nM; with PKC (read-out: IC50 for protein kinase C (PKC)), 12000 nM. Besides, the Ki at MLCK is 61000 nM; on PKC, 6500 nM.

As for `O=C(Nc1cn[nH]c1-c1ccccn1)c1nn(C2CCNCC2)cc1Cl` [BDP5290], in data set [4], the “MLC phosphorylation induced by MRCKβ” value is recorded as “completely inhibits”. Further, the IC50 at ROCK2 was 50 nM; at ROCK1, 5 nM; on MRCKα, 10 nM.

For `C[C@@H](N)c1ccc(C(=O)Nc2ccncc2)cc1` [Wf-536, (+)-(R)-4-(1-aminoethyl)-N-(4-pyridyl)benzamide monohydrochloride], the “in vivo pulmonary metastasis of B16 melanoma” value in the data set on B16 melanoma [5] is on record as “effectively reduced”. In the data set on B16 melanoma [6], the “in vitro invasion of B16 melanoma” value is “effectively reduced”.

Consider `CC(ONC(=O)c1cc(C(F)(F)F)cc(C(F)(F)F)c1)C(=O)Nc1ccc(Cl)cc1` (stereo not shown) [CCG-1423], for which the IC50 in the data set with Rho signaling is 1500 nM. In addition, the “glucose uptake and tolerance” value in data set [7] is “improved glucose uptake and tolerance”. Also, the “spontaneous PC-3 cell invasion through a Matrigel matrix” value in data set [8] is recorded as “selectively inhibited”.

Take `N[C@H](Cc1c[nH]c2ccccc12)C(=O)N/N=C/c1ccc2nccnc2c1` [Rhosin]: in [9], the “interaction with Cdc42 or Rac1, or LARG” value was “does not interact”. Besides, the “lung metastasis of B16BL6 and 4T1 cells” value in the data set with B16BL6 and 4T1 cells is given as “abrogates the lung metastasis”.

As to `CCCOC(=O)c1cccc(-c2cc(C(=O)Nc3ccncc3F)ccc2CN)c1` [Sovesudil], in data set [10] (ocular normotensive and acute hypertensive male rabbits), the “Intraocular Pressure (IOP)” value is given as “effectively reduces Intraocular Pressure”. The hyperemia entry in data set [10] (rabbits) is on record as “without causing distinct hyperemia”. Besides, the IC50 at ROCK2 was 2.3 nM; on ROCK1, 3.7 nM.

For `N[C@H](CNc1nc(-c2ccncc2)nc2sc3c(c12)CCCC3)Cc1ccccc1` [CRT0066854], the IC50 on ROCK2 was 620 nM.

For the compound `CC1=C(C(=O)Nc2cc3cn[nH]c3cc2F)C(c2ccc(Cl)cc2F)N=C(c2ccnc(Cl)c2)N1` (stereo not shown) [GSK-25], the blood pressure entry in [11] is recorded as “drop in blood pressure”. The IC50 on ROCK1 was 7 nM.

With `COCc1c(C(C)C)nc(C(C)C)c(/C=C/[C@@H](O)C[C@@H](O)CC(=O)O)c1-c1ccc(F)cc1` [Cerivastatin], the “proliferation and invasiveness of MDA-MB-231 cells” value in the data set on MDA-MB-231 cells was “inhibits proliferation and invasiveness”. The Ki on HMG-COA reductase was 1.3 nM.

Regarding `Br.Oc1cc2c(cc1O)C(Cc1cccc3ccccc13)NCC2` (stereo not shown) [YS-49], the figures for the IC50 in the data set with RAW 264.7 and in the data set with RAVSMC were 30000 nM and 22000 nM, respectively. Also, in the data set on iNOS gene expression, the “iNOS gene expression induced by LPS and/or cytokines” value is “suppresses iNOS gene expression”.

Consider `N[C@H](Cc1c[nH]c2ccccc12)C(=O)N/N=C/c1ccc2nccnc2c1` [Rhosin hydrochloride], for which the Kd at RhoA was approximately 400 nM.

Turning to `O=C(Nc1ccc(Cl)cc1)C1CCCN(C(=O)c2cccc(-c3ccco3)c2)C1` (stereo not shown) [CCG-203971], the IC50 in the data set with PC-3 cell is 4200 nM. The “TGF-β-induced MKL1 expression” value in the data set on MKL1 expression is recorded as “significantly represses”.

In the case of `COc1ccc2c(c1)C[C@H](C(=O)Nc1ccc(-c3cn[nH]c3)cc1OCCN(C)C)CO2` [Chroman 1], the IC50 in the data set on MRCK was 150 nM.

With `Cc1ccc(C(=O)OCc2ccc([C@@H](CN)C(=O)Nc3ccc4cnccc4c3)cc2)c(C)c1` [AR-13324], the intraocular pressure result in data set [12] is on record as “reduced intraocular pressure”.

In the case of `O=S(=O)(c1cccc2c(I)cccc12)N1CCCNCC1` [ML-07 hydrochloride], the IC50 in the data set with MLCK (read-out: IC50 for MLCK) was 300 nM.

Consider `COc1ccc(CC(=O)Nc2nc3c(s2)CCc2ccccc2-3)cc1OC` [ZINC00881524], for which, in data set [13], the “levels of ROCK1” value is reported as “decreases levels of ROCK1”.

As to `O=c1[nH]ccc2cc(OC3CCNCC3)ccc12` [SAR407899], the Ki at rat ROCK-2 was 41 nM. Further, on ROCK2, the IC50 was 135 nM. Further, in [14], the “ROCK-mediated phosphorylation of MYPTT696” value was “inhibits”.

For `Cc1cccc(COc2cccc(/C=C3\C(=O)NN(c4ccccc4)C3=O)c2)c1` [Compound Y16], in the data set with NIH 3T3 cells, the “RhoA-GTP formation induced by serum” value is reported as “inhibit RhoA-GTP formation”; the “serum or SDF-1α-induced phospho-MLC and phospho-FAK formation” value was “efficiently inhibits”. Besides, the Kd in data set [15] is 76 nM.

In the case of `CCn1c(-c2nonc2N)nc2cnc(Oc3cccc(NC(=O)c4ccc(OCCN5CCOCC5)cc4)c3)cc21` [GSK269962A], the blood pressure result in [11] is given as “dose-dependent reduction in blood pressure”.

Take `COc1c(B(O)O)cccc1-c1nc2ccc3[nH]ncc3c2c2c1CCC2` [HSD1590]: the migration entry in data set [16] is “impressive attenuation in migration”. In addition, the Kd at ROCK [17] was less than 2 nM.

`NS(=O)(=O)c1ccc(N2N=C(c3ccccc3)CC2c2ccccc2)cc1` (stereo not shown) [MLS-573151]: the half-maximal effective concentration (EC50) on Cdc42 is 2000 nM. In addition, the “activity against other GTPases family members” value in [18] was “inactive”. The “fluorescence intensities of phagocytosed beads or bacteria (phagocytosis efficiency)” value with granulocytes was “markedly reduced”.

As for `CC(C)NC(=O)COc1cccc(-c2nc(Nc3ccc4[nH]ncc4c3)c3ccccc3n2)c1` [Belumosudil], the “Tsp-1 and CTGF mRNA levels” value in the data set on PASMC is “significant down-regulations”. For the same compound, in [19], the infarct volume result was “dose-dependently reduces infarct volume”.

The EC50 is the midpoint of the concentration-response curve.
